Experimental data: paper PMC6811774, “Potent, selective, and subunit‐dependent activation of TRPC5 channels by a xanthine derivative” (British Journal of Pharmacology, 2019)

Experiments:
[1] = target: TRPC5–C1 channels (Homo sapiens, UniProt P48995+Q9UL62); assay: [Ca2+]i measurement in (Tet+) HEK T-REx cells expressing hTRPC5-C1 concatemer; type: cell-based
Description: HEK T‐REx™ cell line was transfected with TRPC5‐SYFP2 or TRPC4‐SYFP2 using FuGENE® HD transfection reagent. After 48 hr, cells were put under antibiotic selection using 400 μg·ml^−1 zeocin and 10 μg·ml^−1 blasticidin S (Invivogen, San Diego, California, USA). Medium changes were carried out regularly to remove dead cells. HEK T‐REx cells expressing tetracycline‐inducible human TRPC5, TRPC4–C1, and TRPC5–C1 were created as described previously (Akbulut et al., 2015; Ludlow et al., 2017; Rubaiy, Ludlow, Henrot, et al., 2017). TRPC5–C1 and TRPC4–C1 concatemers allow expression of functional channels with defined 2:2 stoichiometry that display ion permeability and current–voltage relationships distinct from those of homomeric TRPC4:C4 or TRPC5:C5 channels and consistent with those obtained upon co‐expression of TRPC1 with TRPC4 or TRPC5 (Ludlow et al., 2017; Rubaiy, Ludlow, Bon, & Beech, 2017; Rubaiy, Ludlow, Henrot, et al., 2017). Cells were cultured in DMEM‐F12 GlutaMAX (Invitrogen, Paisley, UK) containing 10% FBS (Sigma‐Aldrich, Gillingham, UK), with the addition of blasticidin (10 μg·ml^−1) and zeocin (400 μg·ml^−1) to maintain the stable incorporation of the tetracycline repressor and the channel of interest, respectively. Expression of proteins was induced by the addition of tetracycline (1 μg·ml^−1, 24 hr). Cells were maintained in a humidified incubator with 5% CO2 at 37°C. HEK 293 cells stably expressing tetracycline‐regulated human http://www.guidetopharmacology.org/GRAC/ObjectDisplayForward?objectId=494 were prepared similarly and have also been described previously (McHugh, Flemming, Xu, Perraud, & Beech, 2003). For experiments using transient co‐expression of TRPC1 and TRPC5, HEK cells at 40–60% confluency were transfected with pIRES2‐AcGFP1 and pIRES2‐DsRed‐Express2 plasmids containing human TRPC1 and TRPC5, respectively, using Lipofectamine 3000 (ThermoFisher Scientific, Yokohama, Japan). All experiments using transient expression were performed within 48 hr after transfection. […]

[2] = target: T1, TRPC1:C5 channels (Homo sapiens, UniProt P48995+Q9UL62); assay: Excised outside-out patch-clamp, HEK 293 cells transiently co-expressing hTRPC1 and hTRPC5; type: cell-based
T1 construct: expressed in transfected cells; host or cells: HEK 293 (transient, Lipofectamine 3000)
Description: HEK T‐REx™ cell line was transfected with TRPC5‐SYFP2 or TRPC4‐SYFP2 using FuGENE® HD transfection reagent. After 48 hr, cells were put under antibiotic selection using 400 μg·ml^−1 zeocin and 10 μg·ml^−1 blasticidin S (Invivogen, San Diego, California, USA). Medium changes were carried out regularly to remove dead cells. HEK T‐REx cells expressing tetracycline‐inducible human TRPC5, TRPC4–C1, and TRPC5–C1 were created as described previously (Akbulut et al., 2015; Ludlow et al., 2017; Rubaiy, Ludlow, Henrot, et al., 2017). […]
For electrophysiology experiments, cells were plated at a low density of 20–30% onto round or square glass coverslips (13 mm diameter or 5 × 5 mm), and TRPC expression in HEK T‐REx was induced with 1 μg·ml^−1 tetracycline 24 hr before experimentation. […] The patch‐clamp currents were recorded using Axopatch 200B or HEKA EPC‐800 amplifiers, digitized by a Digidata 1440 or PCI6229 (National Instruments Japan, Tokyo, Japan) and recorded to a computer using pCLAMP10 (Molecular Devices) or WinWCPV4.5 (developed by Dr John Dempster, University of Strathclyde, UK). […]

Chain of TRPC5–C1 channels (Q9UL62 whole entry): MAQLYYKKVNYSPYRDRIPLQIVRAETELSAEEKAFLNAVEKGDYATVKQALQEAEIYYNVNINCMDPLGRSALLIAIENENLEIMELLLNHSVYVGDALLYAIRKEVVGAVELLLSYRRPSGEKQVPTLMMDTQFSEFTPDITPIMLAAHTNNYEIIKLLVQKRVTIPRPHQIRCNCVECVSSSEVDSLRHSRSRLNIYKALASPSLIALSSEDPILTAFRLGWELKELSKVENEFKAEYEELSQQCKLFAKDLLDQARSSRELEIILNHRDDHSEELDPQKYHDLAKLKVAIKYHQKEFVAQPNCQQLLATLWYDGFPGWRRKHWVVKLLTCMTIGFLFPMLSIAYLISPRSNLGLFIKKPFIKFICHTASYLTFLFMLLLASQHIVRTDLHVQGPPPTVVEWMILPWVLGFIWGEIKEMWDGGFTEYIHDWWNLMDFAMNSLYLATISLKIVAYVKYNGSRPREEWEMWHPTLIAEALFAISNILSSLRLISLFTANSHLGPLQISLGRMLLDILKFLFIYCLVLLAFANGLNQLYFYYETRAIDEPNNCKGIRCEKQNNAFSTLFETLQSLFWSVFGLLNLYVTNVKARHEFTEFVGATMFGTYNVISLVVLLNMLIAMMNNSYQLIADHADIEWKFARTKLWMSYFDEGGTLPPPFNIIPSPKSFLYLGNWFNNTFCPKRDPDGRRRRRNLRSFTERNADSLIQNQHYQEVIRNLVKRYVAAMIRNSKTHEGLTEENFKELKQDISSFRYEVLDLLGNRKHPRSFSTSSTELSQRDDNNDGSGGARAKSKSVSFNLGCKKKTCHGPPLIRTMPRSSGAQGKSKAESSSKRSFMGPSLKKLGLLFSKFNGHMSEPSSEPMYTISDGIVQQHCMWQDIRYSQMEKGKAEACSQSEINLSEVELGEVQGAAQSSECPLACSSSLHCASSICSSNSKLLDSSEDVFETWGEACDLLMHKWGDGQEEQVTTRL
Chain of TRPC5–C1 channels (P48995 whole entry): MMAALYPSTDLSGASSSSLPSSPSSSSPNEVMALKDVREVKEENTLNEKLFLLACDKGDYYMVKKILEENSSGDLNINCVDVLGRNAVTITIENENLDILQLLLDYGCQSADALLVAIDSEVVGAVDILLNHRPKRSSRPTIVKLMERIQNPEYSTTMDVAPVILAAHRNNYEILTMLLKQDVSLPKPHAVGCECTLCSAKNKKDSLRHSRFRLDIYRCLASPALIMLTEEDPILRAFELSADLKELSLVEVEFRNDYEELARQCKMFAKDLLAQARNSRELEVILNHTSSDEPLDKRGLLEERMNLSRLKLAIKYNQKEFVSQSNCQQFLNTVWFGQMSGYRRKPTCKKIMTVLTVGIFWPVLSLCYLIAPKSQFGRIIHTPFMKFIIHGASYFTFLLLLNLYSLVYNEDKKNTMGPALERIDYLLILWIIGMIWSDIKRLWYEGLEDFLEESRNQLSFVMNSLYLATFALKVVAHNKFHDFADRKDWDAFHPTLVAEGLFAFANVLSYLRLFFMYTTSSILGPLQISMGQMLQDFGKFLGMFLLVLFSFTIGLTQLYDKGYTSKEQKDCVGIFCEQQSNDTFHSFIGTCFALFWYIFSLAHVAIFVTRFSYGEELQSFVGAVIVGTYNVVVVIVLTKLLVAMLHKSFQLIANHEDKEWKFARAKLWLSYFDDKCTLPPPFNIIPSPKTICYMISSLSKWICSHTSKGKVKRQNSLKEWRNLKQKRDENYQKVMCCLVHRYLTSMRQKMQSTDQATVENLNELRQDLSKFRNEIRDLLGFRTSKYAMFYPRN
T1 sequence (Q9UL62 whole entry): as the sequence (Q9UL62 whole entry) above
T1 sequence (P48995 whole entry): as the sequence (P48995 whole entry) above

Cn1c(=O)n(CCCO)c(=O)c2c1nc(Oc1ccc(Cl)c(OC(F)(F)F)c1)n2Cc1ccc(Cl)cc1 [AM237] was tested, and the “Hill slope, inhibition of EA response” value [1] was -1.2, the “Effect of pre-incubation on basal [Ca2+]i” value ([1]; 0.1–100 nM AM237) was “did not raise” and the “Activation upon acute administration ([Ca2+]i)” value ([1]; 3-300 nM AM237) was “lack of activation”. For the same compound, the “Inhibition of inward and outward currents induced by EA” value ([2]; 30 nM EA, at 3 to 100 nM AM237) was “full inhibition” and the “Activation of TRPC1:C5 currents” value ([2]; outside-out patch) was “did not activate”.
